Assay results taken from patent EP0406111A1, “Substituted arylamines and heteroarylamines, process for their preparation and pharmaceutical composition containing them” (SOCIETE DE CONSEILS DE […] D'APPLICATIONS SCIENTIFIQUES …, priority 1989, dated 1991).

Tests used:
[1] = test system: fixation de la (³H)BTCP dans le striatum de souris; assay: Inhibition of in vivo (3H)BTCP binding in mouse striatum (Example 40); conditions: mice, compound s.c. 60 min before i.v. (3H)BTCP, sacrifice 30 min later
Protocol: Exemple 40 : Etude de l'inhibition de la fixation "in vivo" de (³H)BTCP chez la souris.
Pour cette étude, on utilise des souris Swiss mâles pesant 20 à 25g. Les souris sont réparties par groupes et alimentées avec de la nourriture standard de laboratoire et de l'eau à volonté, en réalisant des cycles de lumière artificielle de 12h consécutives à partir de 7h du matin. Les expériences sont effectuées entre 10h et 18h. Les mesures de la fixation "in vivo" de la (³H)BTCP sont effectuées comme il a été décrit par Maurice et al, 1989, de la façon suivante.
On injecte aux souris par voie sous-cutanée le composé à tester dans 100µl de solution physiologique pour les composés n^o 4 et n^o 16 et dans 100µl d'un mélange 1:1 en volume de solution physiologique et de DMSO pour le composé n^o 26. 60 min après cette injection on leur injecte dans une veine de la queue (³H)BTCP à une dose de 5µCi dans 100µl d'un mélange de solution physiologique et d'éthanol à 5%. 30min après cette injection, on sacrifie les souris. Les striata de cerveaux sont rapidement disséqués et homogénéisés avec un ultra turrax (IKA Verk) réglage maximum pendant 20s dans 80 volumes d'un tampon Na₂HPO₄, HCl 50mM, pH=7,4 à 4°C. Deux aliquots de […] sont filtrées sous pression réduite sur des filtres GF/B (Whatman) prétraités par de la polyéthylène imine à 0,5% (Aldrich). On rince ensuite les filtres deux fois avec 5ml d'un tampon NaCl 50mM, tris-HCl 10mM, pH=7,4 à 4°C. La radioactivité fixée qui reste sur les filtres, et la radioactivité totale, obtenue à partir des deux aliquots de 200µl d'homogénats sont mesurées dans des flacons de 6ml contenant 3,5ml de ACS (Amersham) avec un spectrophotomètre à scintillation liquide Excel 1410 (LKB). La fixation non spécifique est définie comme la radioactivité présente dans chaque région après prétraitement des animaux avec de la BTCP (40mg/kg dans 100µl de solution saline), injectée par voie sous-cutanée, 60min avant l'injection de (³H)BTCP. Les résultats sont exprimés sous la forme des rapports radioactivité fixée / radioactivité libre (B/F) dans lesquels le taux de (³H)BTCP libre est estimé en soustrayant la radioactivité fixée de la radioactivité totale.

[2] = biological target: recapture de la noradrénaline (Rattus norvegicus, UniProt Q63380); assay: Inhibition of (3H)NA reuptake in primary cultured neurons (Example 39); format: cell-based; conditions: for Recapture de (³H)NA nH (nombre de Hill): cultured neurons from rat embryos
Sequence of recapture de la noradrénaline (Q63380 1-617): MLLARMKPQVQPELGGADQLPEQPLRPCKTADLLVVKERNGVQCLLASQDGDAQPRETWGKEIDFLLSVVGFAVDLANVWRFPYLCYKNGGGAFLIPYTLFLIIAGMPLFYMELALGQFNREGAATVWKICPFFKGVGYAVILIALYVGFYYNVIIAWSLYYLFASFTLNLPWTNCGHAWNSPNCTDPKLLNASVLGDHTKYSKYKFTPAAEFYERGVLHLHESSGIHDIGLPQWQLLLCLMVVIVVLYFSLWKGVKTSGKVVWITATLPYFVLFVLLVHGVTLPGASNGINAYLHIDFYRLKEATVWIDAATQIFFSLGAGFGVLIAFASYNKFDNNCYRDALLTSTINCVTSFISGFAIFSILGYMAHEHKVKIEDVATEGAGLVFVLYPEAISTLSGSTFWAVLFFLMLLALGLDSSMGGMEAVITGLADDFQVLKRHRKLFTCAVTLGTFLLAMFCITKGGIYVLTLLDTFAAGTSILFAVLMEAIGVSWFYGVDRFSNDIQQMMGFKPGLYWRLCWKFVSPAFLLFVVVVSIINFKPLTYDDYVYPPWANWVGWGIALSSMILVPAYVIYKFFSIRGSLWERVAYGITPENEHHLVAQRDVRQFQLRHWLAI
From the text: Exemple 39 : Etude de l'inhibition de la recapture de la dopamine et de la noradrénaline sur des neurones en culture.
a) Cultures primaires de neurones.
La substance noire, structure riche en cellules dopaminergiques, ou le locus coeruleus, contenant les corps cellulaires noradrénergiques, sont disséqués à partir d'embryons de rats de 14 jours, âge auquel les cellules ont terminé leur mitose. Les cellules sont dissociées mécaniquement dans un milieu sans calcium ni magnésium.
L'ensemencement est réalisé dans des puits prétraités avec de la D-polylysine, à une densité de 150 000 cellules/puits, dans 400µl de milieu de culture composé de 70% de M.E.M.; 25% de Hanks; 5% de Nu-serum décomplémenté; plus 3% de D-glucose (1/20).
Le milieu de culture est renouvelé au tiers tous les trois jours, jusqu'à 9 jours de développement "in vitro", âge auquel les cellules paraissent matures. A cet âge, la culture ne présente pas encore de cellule gliales.
b) Test d'inhibition de la recapture de la dopamine et de la noradrénaline.
On pré-incube les cellules obtenues en a) pendand 15min, à la température ambiante, avec 40µl d'un tampon constitué par le Ringer Phosphate-disodique 5 mM pH=7,6 dont la composition en concentrations finales est la suivante : NaCl 120mM; CaCl₂ 2,6 mM; MgCl₂ 1,3 mM; KCl 5mM; D-glucose 3 mM; Na₂HPO₄5mM.
On incube ensuite pendant 10min à 37°C avec le même tampon en présence de (³H)Da ou de (³H)NA à une concentration finale 10⁻⁸M et une dilution isotopique de 1/5, et de concentrations croissantes en composé à tester dans un volume final de 400µl.
On rince ensuite trois fois rapidement avec 750µl du même tampon à 4°C, ce qui correspond à une durée totale de 10 secondes.
On récupère alors les cellules dans 2 fois 500µl de NaOH 0,5N et on détermine leur radioactivité par comptage avec 4ml de scintillant et 50µl d'acide acétique glacial.
Avant les rinçages, on a prélevé un aliquote de 100µl du milieu d'incubation et on a déterminé la radioactivité libre sur celui-ci par comptage avec 5ml de scintillant. […]

Row | SMILES | ID₅₀ (mg/kg) [1] | Recapture de la noradrénaline, result in words ([2]; cultured neurons) | Recapture de (³H)NA nH (nombre de Hill) [2]
1 | c1ccc2sc(C3(N4CCCCC4)CCCCC3)cc2c1 [BTCP, (benzo(b)thiophényl-2)-1 (pipéridino -1) cyclohexane, reference compound] | 4,98 mg/kg |  | 
2 | OC1CCN(C2(c3cc4ccccc4s3)CCCCC2)CC1 [composé 26, (benzo(b)thiophényl-2)-1( (ol-4-pipéridino)-1)-1 cyclohexane] | 0,56 mg/kg |  | 
3 | c1ccc2oc(C3(N4CCCCC4)CCCCC3)cc2c1 [composé n^o 4, (benzo(b)furannyl-2)-1 (pipéridino-1)-1 cyclohexane] | 7,78 mg/kg |  | 
4 | CC1CC(C)CN(C2(c3cc4ccccc4s3)CCCCC2)C1 (stereo not drawn) [composé n^o 6, (benzo(b)thiophényl-2)-1 ((diméthyl-3,5 pipéridino)-1)-1 cyclohexane] |  | inhibiteur très puissant | 1,2
5 | CCCN(CCC)C1(c2cc3ccccc3s2)CCCCC1 [composé no 3, (benzo(b)thiophényl-2)-1 (dipropylamino-1)-1 cyclohexane] |  |  | 0,85
